Measured values reported in paper PMC12731528, “High‐Affinity Peptide‐Drug Conjugate Ligands for the TRIM24 PHD and Bromodomain” (Chemistry (Weinheim an Der Bergstrasse, Germany), 2025).
“And” between values parts separate entries of the source, which are not always exact repeats. Equal entries are not always repeated. Where two headings read alike, the source gives them in different places. Each block holds one molecule with its values, some of them ahead of it.

Tests used:
TRIM33α = test system: TRIM33α; design: method as in PMID 36098557, PMID 26061247; details: cited from earlier work
TRIM33β = test system: TRIM33β; design: method as in PMID 36098557, PMID 26061247; details: cited from earlier work
His6-TRIM24 (PHD-BRD) [1] = molecular target: T1, His6-TRIM24 (PHD-BRD) (Homo sapiens, UniProt O15164); test: AlphaScreen competition assay, displacement of biotinylated H3(1–27)K18Ac (B2); design: N825–E1007; made in house; host or cells: Escherichia coli BL21-Gold (DE3), plasmid pNIC28-Bsa4; details: inhibition of TRIM24-H3K18Ac (B2) binding; mean of triplicate ± SEM
T1 sequence (O15164 825-1007): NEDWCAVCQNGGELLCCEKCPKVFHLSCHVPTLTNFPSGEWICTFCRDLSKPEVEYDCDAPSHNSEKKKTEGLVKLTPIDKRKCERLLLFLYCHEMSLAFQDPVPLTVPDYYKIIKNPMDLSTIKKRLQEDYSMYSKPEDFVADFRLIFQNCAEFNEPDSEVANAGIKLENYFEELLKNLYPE

His6-TRIM24 (PHD-BRD) [2] = molecular target: T1, His6-TRIM24 (PHD-BRD); test: AlphaScreen competition assay, displacement of biotinylated H3(1–27)K9Me3K18Ac (B3); type: binding; design: N825–E1007; made in house; host or cells: Escherichia coli BL21-Gold (DE3), plasmid pNIC28-Bsa4; details: for IC50: AlphaScreen® IC50 (TRIM24 PHD-BRD), inhibition of TRIM24-H3K9Me3K18Ac (B3) binding, mean of triplicate ± SEM; for AlphaScreen signal at plateau relative to baseline: competitor H3(1–27)K9Me3K18Ac
CAL-51 cells = test: Proliferation and clonogenic assays, CAL-51; type: cell-based, human; details: CAL-51, 10 µM
Description: (§1) (1 picture or pasted object on this page, not shown here) […]
(§2) supplemented with 10% FBS (Merck Life Sciences U.K. Ltd., F7524). Unless otherwise stated, cells were cultured in a humidified incubator at 37 °C and 5% CO2. Cell lines were passaged by trypsinisation (Trypsin-EDTA solution 1×, Merck Life Sciences U.K. Ltd., T3924), and by diluting the cells into a culture flask at the desired density in complete media. Cell lines were […]
(§3) Cells were seeded and allowed to adhere for 6 h in plastic clear-bottomed 96-well plates in a total volume of 200 μL/well complete medium.

BT-474 (ER+) = test: MTT assay, BT-474; type: cell-based, human; details: ER+ breast cancer cell line, up to 10 μM, 16 h
Description: (§4) (ER+) and CAL-51 (triple negative), treated with the indicated compound (10 µM). The data are represented as the mean of means for two biological repeats (n = 2), each consisting of three technical repeats. Error bars indicate the standard error of the mean. […]
(§5) due to issues with procurement at the time of running the assay. […]
(§6) indicated compound (10 µM). Compounds were added after seeding on day 0 only and counting was carried out each day for 6 days. Data are represented as the mean of triplicate data from one biological repeat. Error bars indicate the standard deviation. […]
as §2, §3

MCF-7 cells = test: Proliferation and clonogenic assays, MCF-7; type: cell-based, human; details: MCF-7, 10 µM
Description: as §4, §5, §6
Error bars indicate the standard deviation.
as §1, §2, §3

CAL-51 (triple negative) = test: MTT assay, CAL-51; type: cell-based, human; details: triple-negative breast cancer cell line, up to 10 μM, 16 h
Description: as §4, §5, §6, §2, §3

BRPF1 (BRD) [3] = molecular target: T2, BRPF1 (BRD) (Homo sapiens, UniProt P55201); test: BROMOscan assay, BRPF1; details: mean of duplicate data ± 95% confidence interval
T2 sequence (P55201 628-732 limits assumed): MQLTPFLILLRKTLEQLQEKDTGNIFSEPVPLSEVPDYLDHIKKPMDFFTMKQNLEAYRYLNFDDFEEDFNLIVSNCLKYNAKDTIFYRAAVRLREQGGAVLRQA

TRIM24 (PHD‐BRD) = molecular target: T3, TRIM24 (PHD‐BRD) (Homo sapiens, UniProt O15164); test: BROMOscan assay, TRIM24; type: binding
T3 sequence (O15164 826-1004 limits assumed): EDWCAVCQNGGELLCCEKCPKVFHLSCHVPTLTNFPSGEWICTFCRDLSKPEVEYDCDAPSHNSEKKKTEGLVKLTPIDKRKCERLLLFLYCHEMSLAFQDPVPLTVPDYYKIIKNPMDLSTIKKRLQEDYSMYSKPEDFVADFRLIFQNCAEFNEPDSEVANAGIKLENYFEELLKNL
Text: The Hill Slope was set to −1.

His6-TRIM24 (PHD-BRD) [4] = molecular target: T1, His6-TRIM24 (PHD-BRD); test: Surface plasmon resonance (SPR); type: binding; design: N825–E1007; made in house; host or cells: Escherichia coli BL21-Gold (DE3), plasmid pNIC28-Bsa4; details: 15 °C; for Kd: mean of means of triplicate ± SEM
TRIM24 = details: ref Gechijian et al. 2018; cited from earlier work
BRPF1 = details: ref Gechijian et al. 2018; cited from earlier work
His6-TRIM24 (PHD-BRD) [5] = molecular target: T1, His6-TRIM24 (PHD-BRD)
His6-TRIM24 (PHD-BRD) [6] = molecular target: His6-TRIM24 (PHD-BRD) (UniProt O15164); test: other; AlphaScreen, competitor biotinylated H3K9Me3K18Ac (B3)
BRPF1 (BRD) [7] = molecular target: T4, BRPF1 (BRD); details: Synthetic nine-residue H3(1-9) peptide. Residue 9 (K10 in precursor numbering) is unnatural amino acid 42, a lysine analogue whose side-chain nitrogen is part of an isoindoline ring (parent written as Lys). C-terminal group is not stated in the text. Limits are inferred from H3(1-8) peptide 46 plus amino acid 42. limits by convention from the usual BRPF1 bromodomain structural construct (covers B); modification not given
T4 chain: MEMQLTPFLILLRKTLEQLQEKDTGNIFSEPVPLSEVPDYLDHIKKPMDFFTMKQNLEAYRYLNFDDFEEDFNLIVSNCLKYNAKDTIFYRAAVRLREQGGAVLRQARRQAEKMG

BRPF1 (BRD) [8] = molecular target: T4, BRPF1 (BRD); test: BROMOscan; details: Synthetic nine-residue H3(1-9) peptide. Residue 9 (K10 in precursor numbering) is unnatural amino acid 42, a lysine analogue whose side-chain nitrogen is part of an isoindoline ring (parent written as Lys). C-terminal group is not stated in the text. Limits are inferred from H3(1-8) peptide 46 plus amino acid 42. limits by convention from the usual BRPF1 bromodomain structural construct (covers B); modification not given

Molecule: CCCOc1cc(OCCCCN(C)C)cc(Oc2cc3c(cc2NS(=O)(=O)c2ccc(OC)c(OC)c2)n(C)c(=O)n3C)c1 [IACS9571]
binding to TRIM33α (TRIM33α): does not bind
binding to TRIM33β (TRIM33β): does not bind

IC50 (His6-TRIM24 (PHD-BRD) [1]): 388 ± 46.6 nM
IC50 (His6-TRIM24 (PHD-BRD) [2]): > 100000 nM
AlphaScreen signal at plateau relative to baseline (His6-TRIM24 (PHD-BRD) [2]): did not decrease to baseline
Molecule: CCCOc1cccc(Oc2cc3c(cc2NS(=O)(=O)c2cccc(C(=O)O)c2)n(C)c(=O)n3C)c1 [compound 28]

IC50 (His6-TRIM24 (PHD-BRD) [1]): 105 ± 5.3 nM
IC50 (His6-TRIM24 (PHD-BRD) [2]): 484 nM
AlphaScreen signal at plateau relative to baseline (His6-TRIM24 (PHD-BRD) [2]): did not decrease to baseline
Molecule: CCCOc1cccc(Oc2cc3c(cc2NS(=O)(=O)c2cccc(C(=O)NCCOCCOCCNC(C)=O)c2)n(C)c(=O)n3C)c1 [compound 32]

IC50 (His6-TRIM24 (PHD-BRD) [1]): 71 ± 4.1 nM
IC50 (His6-TRIM24 (PHD-BRD) [2]): 348 nM
AlphaScreen signal at plateau relative to baseline (His6-TRIM24 (PHD-BRD) [2]): did not decrease to baseline
Molecule: CCCOc1cccc(Oc2cc3c(cc2NS(=O)(=O)c2cccc(C(=O)NCCOCCOCCOCCNC(C)=O)c2)n(C)c(=O)n3C)c1 [compound 33]
effect on breast cancer cell growth (CAL-51 cells): neither compound significantly affected
cytotoxic effects (MTT) (BT-474 (ER+)): did not show cytotoxic effects
effect on breast cancer cell growth (MCF-7 cells): neither compound significantly affected
cytotoxic effects (MTT) (CAL-51 (triple negative)): did not show cytotoxic effects

Kd (BRPF1 (BRD) [3]): 2.15 ± 0.49 nM
IC50 (His6-TRIM24 (PHD-BRD) [1]): 94.2 ± 4.6 nM
Kd (TRIM24 (PHD‐BRD); BROMOscan TRIM24 PHD-BRD Kd, mean of duplicate data ± 95% confidence interval): 2 ± 0.98 nM
Kd (TRIM24 (PHD‐BRD); individual duplicate curves, read-out: BROMOscan TRIM24 Kd, single dose-response curve): 2.5 nM and 1.5 nM
IC50 (His6-TRIM24 (PHD-BRD) [2]): 275 nM
AlphaScreen signal at plateau relative to baseline (His6-TRIM24 (PHD-BRD) [2]): did not decrease to baseline
koff (His6-TRIM24 (PHD-BRD) [4]; SPR): 0.061 s⁻¹
kon (His6-TRIM24 (PHD-BRD) [4]; SPR): 6.1e+06 M⁻¹ s⁻¹
Kd (His6-TRIM24 (PHD-BRD) [4]; binding saturation, read-out: SPR Kd – equilibrium): 11 ± 2.3 nM
Kd (His6-TRIM24 (PHD-BRD) [4]; multi-cycle kinetics, read-out: SPR Kd – kinetic): 10 ± 7 nM
Molecule: CCCOc1cccc(Oc2cc3c(cc2NS(=O)(=O)c2cccc(C(=O)NCCOCCOCCOCCOCCNC(C)=O)c2)n(C)c(=O)n3C)c1 [compound 34]

Molecule: CCCOc1cccc(Oc2cc3c(cc2NS(=O)(=O)c2cccc(C(=O)NCCOCCOCCOCC(=O)N[C@H](C(=O)N4C[C@H](O)C[C@H]4C(=O)NCc4ccc(-c5scnc5C)cc4)C(C)(C)C)c2)n(C)c(=O)n3C)c1 [dTRIM24]
Kd (TRIM24): 42 nM
Kd (BRPF1): 52 nM

IC50 (His6-TRIM24 (PHD-BRD) [1]): > 400000 nM
IC50 (His6-TRIM24 (PHD-BRD) [2]): > 400000 nM
IC50 (His6-TRIM24 (PHD-BRD) [5]; AlphaScreen® IC50, inhibition of TRIM24-H3K9Me3 (B1) binding by PDCs and controls, mean of triplicate ± SEM): > 400000 nM
IC50 (His6-TRIM24 (PHD-BRD) [5]; AlphaScreen® IC50, inhibition of TRIM24-H3K9Me3 (B1) binding, mean of triplicate data ± standard error of the mean): > 400000 nM
Molecule: C[C@H](N)C(=O)N[C@@H](CCCNC(=N)N)C(=O)N[C@H](C(=O)N[C@@H](CCCC[N+](C)(C)C)C(=O)N[C@@H](CCC(N)=O)C(=O)N[C@H](C(=O)N[C@@H](C)C(=O)N[C@@H](CCCNC(=N)N)C(=O)N[C@@H](CCCCN)C(=O)N[C@@H](CO)C(=O)N[C@H](C(=O)NCC(=O)NCC(=O)N[C@@H](CCCCN)C(=O)N[C@@H](C)C(=O)O)[C@@H](C)O)[C@@H](C)O)[C@@H](C)O [reference compound]

IC50 (His6-TRIM24 (PHD-BRD) [6]): 242 nM
Molecule: H3(1-27)K9Me3K18Ac

Kd (BRPF1 (BRD) [7]): > 10000 nM
Kd (BRPF1 (BRD) [8]): > 10000 nM
Molecule: ARTKQTARK [TRIM24 PHD-binding peptide (56)]
